Test results taken from patent US12077555B2, “STAT degraders and uses thereof” (Kymera Therapeutics, Inc., priority 2019, dated 2024).

Key:
SUP-M2 cells = assay: CellTiter-Glo cell viability, SUP-M2; type: cell-based
SUP-M2 tumor cells = assay: Xenograph tumor study, SUP-M2; type: in vivo, NOD SCID mice; settings: ALK+ALCL xenograph model SUP-M2, intermittent dosing, FIG. 20
Procedure: (§1) Animals: 50 6-8 week old female NOD SCID mice weighing 18 to 20 grams. 25 mice were used in each study.
(§2) Method for Tumor Inoculation: Each mouse was inoculated subcutaneously with SU-DHL-1 tumor cells (1×107+Matrigel) or SUP-M2 tumor cells (5×106+Matrigel) in 0.1 ml of RPMI1640 medium supplemented with 10% FBS, 100 U/ml penicillin and […] streptomycin for tumor development. Mice were then assigned to groups such that the mean tumor volume was the same for each treatment group and time point. […] Vehicle was 25% HP-β-CD in water adjusted to pH 7.4.
(§3) Measurement Parameters: Study animals were monitored not only for tumor growth but also behavior such as mobility, food and water consumption (by cage side checking only), body weight (BW), eye/hair matting and any other abnormal effect. Any mortality and/or abnormal clinical signs was recorded. Sponsor was notified immediately if abnormal clinical signs, or if tolerability issues were observed. Body weights of all animals were measured and recorded twice per week. The measurement of tumor size was conducted twice weekly with a caliper and recorded. The tumor volume (mm3) was estimated using the formula: TV=a×b2/2, where “a” and “b” are long and short diameters of a tumor, respectively.

PD-L1 = assay: STAT3 RT-qPCR assay, PD-L1 mRNA; type: cell-based; settings: SU-DHL-1 cells
Procedure: SU-DHL-1 cells were treated with compounds for a designed time. 0.3-0.6 mL lysis buffer with 2-mercaptoethanol was added to the collected cell pellet or monolayer cells. The cells were vortexed until the cell was dispersed and the cells appear lysed. One volume of 70% ethanol was added to each volume of cell homogenate and vortex. 700 μL of the sample was transferred to the spin cartridge and centrifuged at 12000 g for 15s at RT. The flow-through was discarded and the process repeated until the entire samples had been processed. 700 ul wash buffer I was added to the spin cartridge and centrifuged at 12000 g for 15s at RT and the flow-through was discarded. 500 μL wash buffer II with ethanol was added to the spin cartridge and centrifuged at 12000 g for 15s at RT and the flow-through was discarded. The process was then repeated. The spin cartridge was centrifuged at 12000 g for 2 min to dry the membrane with bound RNA. 30-100 μL RNase-free water was added to the center of the spin cartridge and incubated for 1 min at RT. […] The concentration of the RNA was quantitated using Nano-Drop. cDNA was formed from the RNA by reverse transcription and qPCR of the cDNA with primer of the gene of interest and housekeeping gene was preformed using the volumes below: […]

KI-JK cells = assay: CellTiter-Glo cell viability, KI-JK; type: cell-based
SU-DHL-1 tumor cells = assay: Xenograph tumor study, SU-DHL-1; type: in vivo, NOD SCID mice; settings: for tumor volume, 5 days / tumor volume, 10 days / tumor volume, 15 days / tumor volume, 20 days: SUDHL-1 xenograph, 2.5-30 mg/kg, 2 days on/5 days off
Procedure: as §1, §2, §3

In the case of Cn1c(=O)n(C2CCC(=O)NC2=O)c2ccc(C[C@H]3CC[C@@H](CC(=O)N4CC[C@H]5CC[C@@H](C(=O)N[C@@H](CCC(N)=O)C(=O)NC(c6ccccc6)c6ccccc6)N5C(=O)[C@@H](NC(=O)c5cc6cc(C(=O)P(=O)(O)O)ccc6[nH]5)C4)CC3)cc21 (stereo partly drawn) [Compound I-174, 2-[[(5S,8S,10aR)-8-[[(1S)-3-carbamoyl-1-(diphenylmethylcarbamoyl)propyl]carbamoyl]-6-oxo-3-[2-[(1s,4s)-4-[[1-(2,6-dioxopiperidin-3-yl)-3-methyl-2-oxo-1,3-benzodiazol-5-yl]methyl]cyclohexyl]acetyl]-octahydropyrrolo[1,2-a][1,5]diazocin-5-yl]carbamoyl]-1H-indole-5-carbonylphosphonic acid], the IC50 (SUP-M2 cells; 96 h, SUP-M2, ALCL (ALK+), Day 4, read-out: CTG, IC50 μM, Day 4) was 0.086 µM, the “CTG (% Max inh), Day 4” value (SUP-M2 cells; SUP-M2, ALCL (ALK+), Day 4) was “(95) %” and the cell proliferation (SUP-M2 cells; SUP-M2, FIG. 16) was “inhibit”. For the same molecule, the tumor regression (SUP-M2 tumor cells) was “achieves tumor regression”, the IC50 (PD-L1; Homo sapiens, 24 hr) was 0.029 µM and the “STAT3-dependent gene expression of PDL-1” value (PD-L1; FIG. 5A, FIG. 15) was “downregulates”. For the same molecule, the IC50 (KI-JK cells; 96 h, ALCL (ALK+), Day 4, read-out: CTG, IC50 μM, Day 4) was 0.047 µM, the “CTG (% Max inh), Day 4” value (KI-JK cells; ALCL (ALK+), Day 4) was “(97) %” and the cell proliferation (KI-JK cells; FIG. 16) was “inhibit”. The tumor regression (SU-DHL-1 tumor cells; ALK+ALCL xenograph model SU-DHL-1, intermittent dosing, FIG. 19) was “achieves tumor regression”, the “tumor volume, 5 days” value (SU-DHL-1 tumor cells; IP) was “A (A<500 mm^3)” and the “tumor volume, 10 days” value (SU-DHL-1 tumor cells; IP) was “A (A<500 mm^3)”. For the same molecule, the “tumor volume, 15 days” value (SU-DHL-1 tumor cells; IP) was “A (A<500 mm^3)”, the “tumor volume, 20 days” value (SU-DHL-1 tumor cells; IP) was “A (A<500 mm^3)” and the “tumor volume, 5 days” value (SU-DHL-1 tumor cells; IV) was “A (A<500 mm^3)”. For the same molecule, the “tumor volume, 10 days” value (SU-DHL-1 tumor cells; IV) was “A (A<500 mm^3)”, the “tumor volume, 15 days” value (SU-DHL-1 tumor cells; IV) was “A (A<500 mm^3)” and the “tumor volume, 20 days” value (SU-DHL-1 tumor cells; IV) was “A (A<500 mm^3)”.
